Assay results reported in US20200190073A1, “SUBSTITUTED SUCCINIMIDE DERIVATIVES AS PESTICIDES” (BASF SE, priority 2017, published 2020).
Where two headings read alike, the source gives them in different places.

Key:
Type in all cases: in vivo
[1] = tested on: Diamond back moth (Plutella xylostella); assay: B.1 Diamond back moth, cabbage leaf dip; settings: foliar, 300 ppm, cabbage leaf dip, 3rd instar larvae, 72 hours after treatment, read-out: mortality in comparison with untreated controls
Protocol: B.1 Diamond back moth (Plutella xylostella)
(§1) The active compound was dissolved at the desired concentration in a mixture of 1:1 (vol:vol) distilled water:acetone. Surfactant (Kinetic HV) was added at a rate of 0.01% (vol/vol). The test solution was prepared at the day of use.
Leaves of cabbage were dipped in test solution and air-dried. Treated leaves were placed in petri dishes lined with moist filter paper and inoculated with ten 3rd instar larvae. Mortality was recorded 72 hours after treatment. Feeding damages were also recorded using a scale of 0-100%.

[2] = tested on: Green Peach Aphid (Myzus persicae); assay: B.2 Green peach aphid, artificial diet, systemic; settings: 72 h, 2500 ppm, adult aphids on treated diet, 3 days, read-out: mortality in comparison with untreated controls
Excerpt: B.2 Green Peach Aphid (Myzus persicae)
For evaluating control of green peach aphid (Myzus persicae) through systemic means the test unit consisted of 96-well-microtiter plates containing liquid artificial diet under an artificial mem brane.
The compounds were formulated using a solution containing 75% v/v water and 25% v/v DMSO. Different concentrations of formulated compounds were pipetted into the aphid diet, using a custom built pipetter, at two replications.
After application, 5-8 adult aphids were placed on the artificial membrane inside the microtiter plate wells. The aphids were then allowed to suck on the treated aphid diet and incubated at about 23±1° C. and about 50±5% relative humidity for 3 days. Aphid mortality and fecundity was then visually assessed.

[3] = tested on: Vetch Aphid (Megoura viciae); assay: B.3 Vetch aphid, broad bean leaf disks; settings: foliar, 120 h, 2500 ppm, sprayed leaf disks, 5 days, read-out: mortality in comparison with untreated controls
Protocol: B.3 Vetch Aphid (Megoura viciae)
For evaluating control of vetch aphid (Megoura viciae) through contact or systemic means the test unit consisted of 24-well-microtiter plates containing broad bean leaf disks.
The compounds were formulated using a solution containing 75% v/v water and 25% v/v DMSO. Different concentrations of formulated compounds were sprayed onto the leaf disks at 2.5 μl, using a custom built micro atomizer, at two replications.
After application, the leaf disks were air-dried and 5-8 adult aphids placed on the leaf disks inside the microtiter plate wells. The aphids were then allowed to suck on the treated leaf disks and incubated at about 23±1° C. and about 50±5% relative humidity for 5 days. Aphid mortality and fecundity was then visually assessed.

[4] = tested on: Tobacco Budworm (Heliothis virescens); assay: B.4 Tobacco budworm, insect diet with eggs; settings: 120 h, 2500 ppm, egg and larval mortality, 5 days, read-out: mortality in comparison with untreated controls
Protocol: B.4 Tobacco Budworm (Heliothis virescens)
For evaluating control of tobacco budworm (Heliothis virescens) the test unit consisted of 96-well-microtiter plates containing an insect diet and 15-25 H. virescens eggs.
The compounds were formulated using a solution containing 75% v/v water and 25% v/v DMSO. Different concentrations of formulated compounds were sprayed onto the insect diet at 10 μl, using a custom built micro atomizer, at two replications.
After application, microtiter plates were incubated at about 28±1° C. and about 80±5% relative humidity for 5 days. Egg and larval mortality was then visually assessed.

[5] = tested on: Boll Weevil (Anthonomus grandis); assay: B.5 Boll weevil, insect diet with eggs; settings: 120 h, 2500 ppm, egg and larval mortality, 5 days, read-out: mortality in comparison with untreated controls
Protocol: B.5 Boll Weevil (Anthonomus grandis)
For evaluating control of boll weevil (Anthonomus grandis) the test unit consisted of 96-well-microtiter plates containing an insect diet and 5-10 A. grandis eggs.
The compounds were formulated using a solution containing 75% v/v water and 25% v/v DMSO. Different concentrations of formulated compounds were sprayed onto the insect diet at 5 μl, using a custom built micro atomizer, at two replications.
After application, microtiter plates were incubated at about 25±1° C. and about 75±5% relative humidity for 5 days. Egg and larval mortality was then visually assessed.

[6] = tested on: Orchid Thrips (Dichromothrips Corbetti); assay: B.7 Orchid thrips, floral immersion; settings: 300 ppm; adult thrips; 72 hours after treatment; read-out: mortality in comparison with untreated controls
Protocol: B.7 Orchid Thrips (Dichromothrips Corbetti)
Dichromothrips corbetti adults used for bioassay were obtained from a colony maintained continuously under laboratory conditions. For testing purposes, the test compound is diluted in a 1:1 mixture of acetone:water (vol:vol), plus Kinetic HV at a rate of 0.01% v/v.
Thrips potency of each compound was evaluated by using a floral-immersion technique. All petals of individual, intact orchid flowers were dipped into treatment solution and allowed to dry in Petri dishes. Treated petals were placed into individual re-sealable plastic along with about 20 adult thrips. All test arenas were held under continuous light and a temperature of about 28° C. for duration of the assay. After 3 days, the numbers of live thrips were counted on each petal. The percent mortality was recorded 72 hours after treatment.

[7] = tested on: Rice Green Leafhopper (Nephotettix virescens); assay: B.8 Rice green leafhopper, sprayed rice seedlings; settings: 300 ppm, adults on sprayed rice seedlings, after 72 hours, read-out: mortality in comparison with untreated controls
Protocol: B.8 Rice Green Leafhopper (Nephotettix virescens)
(§2) Rice seedlings were cleaned and washed 24 hours before spraying. The active compounds were formulated in 1:1 acetone:water (vol:vol), and 0.01% vol/vol surfactant (Kinetic HV) was added. Potted rice seedlings were sprayed with 5-6 ml test solution, air dried, covered with Mylar cages and inoculated with 10 adults. Treated rice plants were kept at about 28-29° C. and relative humidity of about 50-60%. Percent mortality was recorded after 72 hours.

[8] = tested on: Red Spider Mite (Tetranychus kanzawai); assay: B.9 Red spider mite, sprayed cowpea beans; settings: 300 ppm, 72 hours after treatment, read-out: mortality in comparison with untreated controls
Protocol: B.9 Red Spider Mite (Tetranychus kanzawai)
The active compound was dissolved at the desired concentration in a mixture of 1:1 (vol:vol) distilled water:acetone. Add surfactant (Kinetic HV) was added at a rate of 0.01% (vol/vol).The test solution was prepared at the day of use.
Potted cowpea beans of 4-5 days of age were cleaned with tap water and sprayed with 1-2 ml of the test solution using air driven hand atomizer. The treated plants were allowed to air dry and afterwards inoculated with 30 or more mites by clipping a cassava leaf section from rearing population. Treated plants were placed inside a holding room at about 25-27° C. and about 50-60% relative humidity. Percent mortality was assessed 72 hours after treatment.

[9] = tested on: Green Soldier Stink Bug (Nezara viridula); assay: B.11 Green soldier stink bug, sprayed soybean pods; settings: 120 h, 300 ppm, late 3rd instar, after 5 days, read-out: mortality in comparison with untreated controls
Protocol: B.11 Green Soldier Stink Bug (Nezara viridula)
The active compound was dissolved at the desired concentration in a mixture of 1:1 (vol:vol) distilled water:acetone. Surfactant (Kinetic HV) was added at a rate of 0.01% (vol/vol). The test solution was prepared at the day of use. Soybean pods were placed in glass Petri dishes lined with moist filter paper and inoculated with ten late 3rd instar N. viridula. Using a hand atomizer, approximately 2 ml solution is sprayed into each Petri dish. Assay arenas were kept at about 25° C. Percent mortality was recorded after 5 days.

[10] = tested on: Neotropical Brown Stink Bug (Euschistus heros); assay: B.12 Neotropical brown stink bug, dipped pole bean; settings: 120 h, 500 ppm, adults, 5 days, read-out: mortality in comparison with untreated controls
Protocol: B.12 Neotropical Brown Stink Bug (Euschistus heros)
For evaluating control of Euschistus heros through contact the test unit consisted of 100 ml disposable plastic beakers with transparent lids.
The compounds were formulated using a solution containing 50% water and 50% acetone. 50 ml of different concentrations of formulated compounds or mixtures were prepared in a glass petri dish and used for dipping three 6 cm sections of fresh pole bean. Each treatment was replicated eight times.
After application, the pole bean sections were air-dried and 5 adult E. heros placed in each beaker. The E. heros were then allowed to suck on the treated pole bean sections and incubated at 23±1° C., 50±5% RH for 5 days. E. heros mortality was then visually assessed.

[11] = tested on: Brown Marmorated Stink Bug (Halyomorpha halys); assay: B.13 Brown marmorated stink bug, spray; settings: 120 h, 100 ppm, adults, after 5 days, read-out: mortality in comparison with untreated controls
Protocol: B.13 Brown Marmorated Stink Bug (Halyomorpha halys)
as §1
Row peanuts and soybean seeds were placed into microwavable plastic cups and inoculated with five adult stage H. halys. Using a hand atomizer, approximately 1 ml solution is sprayed into each cup, insects and food present. A water source was provided (cotton wick with water) Each treatment is replicated 4-fold. Assay arenas are kept at about 25° C. Percent mortality was recorded after 5 days.

[12] = tested on: Diamond back moth (Plutella xylostella); assay: CE.6 Diamond back moth, contact activity, comparative test; settings: 0.1 ppm, contact activity, third-instar larvae sprayed, read-out: % mortality in comparison to untreated controls
Protocol: (§3) The tables show % mortality in comparison to untreated controls.
CE.6 Diamond Back Moth (Plutella xylostella)
Ten third-instar larvae are sprayed with 1 ml test solution and introduce to untreated leaves held petri dished lined with moist filter paper. Mortality is recorded 24, 72, and 120 hours after treatment.

[13] = tested on: Cowpea Aphid (Aphis Craccivora); assay: CE.1 Cowpea aphid, comparative test; settings: read-out: % mortality in comparison to untreated controls
Protocol: as §3
CE.1 Cowpea Aphid (Aphis Craccivora)
Potted cowpea plants colonized with approximately 100-150 aphids of various stages were sprayed after the pest population has been recorded. Population reduction was assessed after 24, 72, and 120 hours.

[14] = tested on: Rice Brown Plant Hopper (Nilaparvata lugens); assay: CE.2 Rice brown plant hopper, comparative test; settings: read-out: % mortality in comparison to untreated controls
Protocol: as §3
CE.2 Rice Brown Plant Hopper (Nilaparvata lugens)
as §2, with “50:50” for “1:1”, “(vol:vol)” for “(vol:vol),”, “0.1%” for “0.01%”, “(EL 620)” for “(Kinetic HV)”, “5” for “5-6”, “placed in” for “covered with Mylar”

[15] = tested on: Orchid Thrips (Dichromothrips Corbetti); assay: CE.3 Orchid thrips, comparative test; settings: 96 h, read-out: % mortality in comparison to untreated controls
Protocol: as §3
CE.3 Orchid Thrips (Dichromothrips Corbetti)
Dichromothrips corbetti adults used for bioassay were obtained from a colony maintained continuously under laboratory conditions. For testing purposes, the test compound was diluted to a concentration of 300 ppm (wt compound: vol diluent) in a 1:1 mixture of acetone:water (vol:vol), plus 0.01% vol/vol Kinetic® surfactant.
Thrips potency of each compound was evaluated by using a floral-immersion technique. Plastic petri dishes were used as test arenas. All petals of individual, intact orchid flowers were dipped into treatment solution and allowed to dry. Treated flowers were placed into individual petri dishes along with 10-15 adult thrips. The petri dishes were then covered with lids. All test arenas were held under continuous light and a temperature of about 280C for duration of the assay. After 4 days, the numbers of live thrips were counted on each flower, and along inner walls of each petri dish. The level of thrips mortality was extrapolated from pre-treatment thrips numbers.

[16] = tested on: Silverleaf Whitefly (Bemisia argentifolii); assay: CE.4 Silverleaf whitefly, comparative test; settings: 72 h, read-out: % mortality in comparison to untreated controls
Protocol: as §3
CE.4 Silverleaf Whitefly (Bemisia argentifolii)
The active compounds were formulated in 50:50 acetone:water (vol:vol) and 100 ppm Kinetica™ surfactant.
Selected cotton plants were grown to the cotyledon state (one plant per pot). The cotyledons were dipped into the test solution to provide complete coverage of the foliage and placed in a well-vented area to dry. Each pot with treated seedling was placed in a plastic cup and 10 to 12 whitefly adults (approximately 3-5 day old) were introduced. The insects were collected using an aspirator and a Tygon® tubing connected to a barrier pipette tip. The tip, containing the collected insects, was then gently inserted into the soil containing the treated plant, allowing insects to crawl out of the tip to reach the foliage for feeding. The cups were covered with a reusable screened lid. Test plants were maintained in the holding room at about 25° C. and about 20-40% relative humidity for 3 days avoiding direct exposure to the fluorescent light (24 hour photoperiod) to prevent trapping of heat inside the cup. Mortality was assessed 3 days after treatment of the plants.

[17] = tested on: Rice Green Leafhopper (Nephotettix virescens); assay: CE.5 Rice green leafhopper, comparative test; settings: 3 ppm, after 72 hours, read-out: % mortality in comparison to untreated controls
Protocol: as §3
CE.5 Rice Green Leafhopper (Nephotettix virescens)
as §2, with “50:50” for “1:1”, “0.1%” for “0.01%”, “(EL 620)” for “(Kinetic HV)”, “5” for “5-6”, “placed in” for “covered with Mylar”

CN1C(=O)CC(NC(=O)c2ccc(C3=NOC(c4ccc(F)c(Cl)c4)(C(F)(F)F)C3)c3c2CCC3)C1=O (stereo not drawn) [Compound I-1-11] gave a mortality at 300 ppm [1] greater than 75%, a mortality at 2500 ppm [2] greater than 75% and a mortality at 2500 ppm [3] greater than 75%. The mortality at 2500 ppm [4] was greater than 75%, the mortality at 2500 ppm [5] was greater than 75% and the mortality at 300 ppm [6] was greater than 75%. It also gave a mortality at 300 ppm [7] greater than 75%, a mortality at 300 ppm [8] greater than 75% and a mortality at 300 ppm [9] greater than 75%. For the same compound, the mortality at 500 ppm [10] was greater than 75%, the mortality at 100 ppm [11] was greater than 75% and the mortality at 0.1 ppm [12] was 75%.

Cc1cc(C2=NOC(c3cc(Cl)cc(Cl)c3)(C(F)(F)F)C2)ccc1C(=O)NC1CCN(CC(F)(F)F)C1=O (stereo not drawn) [No. 5-405 of US 20070066617, reference compound] showed a mortality at 10 ppm [13] of 25%, a mortality at 10 ppm ([14]; 72 h) of 0% and a mortality at 10 ppm [15] of 0%. For the same compound, the mortality at 10 ppm [16] was 25%.

CCN1CCC(NC(=O)c2ccc(C3=CCC(c4ccc(F)c(Cl)c4)(C(F)(F)F)C3)cc2Cl)C1=O (stereo not drawn) [No. I-9 of WO 2017/016883] gave a mortality at 10 ppm ([13]; 10 ppm, sprayed cowpea plants) of 25%, a mortality at 10 ppm ([14]; 10 ppm, after 72 hours) of 25% and a mortality at 10 ppm ([15]; 10 ppm, after 4 days) of 0%. For the same compound, the mortality at 10 ppm ([16]; 10 ppm, 3 days after treatment) was 25% and the mortality at 3 ppm [17] was 0%.
